# Key:
# [1] = test system: FLAG-tagged BRD4 in HeLa cells; test: In situ cell extraction with IF, BRD4 displacement from chromatin; format: cell-based; conditions: for IF signal for histone H3: HeLa FLAG-BRD4, two-color staining
# [2] = target: biotinylated H3K23Ac peptide (N-terminal residues 1-33 of histone H3); test: AlphaScreen or HTRF; AlphaScreen; biotinylated H3K23Ac peptide in excess (1 µM), indicated amounts of His-TRIM24 WT or N980A; streptavidin donor beads and Ni-NTA acceptor beads
# [3] = target: biotinylated H3K23Ac peptide (N-terminal residues 1-33 of histone H3); test: AlphaScreen or HTRF; AlphaScreen optimisation matrix of TRIM24 protein and peptide (twofold dilution series); final conditions 5 nM TRIM24 and 15 nM peptide; Buffer B (50 mM Hepes pH 7.4, 100 mM NaCl, 0.1 % BSA, 0.05 % Chaps), room temperature
# [4] = test system: SMARCA2; set-up: method as in PMID 26139243; conditions: cited from earlier work
# [5] = test system: histone H3K23Ac mark in HeLa cells; test: H3K23 acetylation in HeLa cells (Western blot, anti-H3K23Ac immunostaining); format: cell-based; conditions: HDAC inhibitor treatment, 2 µM, 2 h; Western blot
# Experimental: Standard IF procedures were used. Briefly, cells were permeabilized (0.5 % Triton X-100 in PBS) for 15 min and incubated with blocking solution (DAKO #X0909) for 30 min. The following primary antibodies were used: goat anti-V5 (Bethyl #A190-119A) 1:200; mouse anti-FLAG (Sigma #F1804) 1:200; rabbit anti-BRD4 (Abcam #ab128874) 1:200; rabbit anti-TRIM24 (Proteintech #14208-1-AP) 1:400; rabbit anti-K3K23Ac (Cell Signaling #8848) 1:200, and mouse anti-histone H3 (Active Motif #39763) 1:4000. Alexa Fluor-conjugated secondary antibodies were from Invitrogen and Hoechst 33342 (Invitrogen, #H3570) was used for nuclei counterstaining (10 µg/ml). For each Alexa fluorochrome, images (4–10 fields per well; 20X magnifications) were acquired using the Operetta High-Content Screening System (PerkinElmer). Image analysis was performed in Harmony software (PerkinElmer) by selecting nuclei and cytoplasm in Hoechst channel. Gating for single cells of flat morphology was done based on nuclei area, roundness and intensity of Hoechst in the nucleus and in the cytoplasm. In every gated cell, the mean signal intensity value for each fluorochrome was calculated separately in nucleus and cytoplasm. The specific nuclear signal was estimated subtracting mean cytoplasmic value from nuclear; and average value was calculated using at least 1000 cells in each well.
# [6] = target: FLAG-TRIM24-PHD-Bromo-V5 (isolated PHD-bromodomain, residues 810-1050) (human) (UniProt O15164); test: proximity ligation; HeLa TRIM24-PB cells, fixed; goat anti-V5 and mouse anti-histone H3 antibody pair; with and without SAHA (5 µM, 2 h)
# [7] = target: FLAG-TRIM24-PHD-Bromo-V5 (isolated PHD-bromodomain, residues 810-1050) (human) (UniProt O15164); test: AlphaScreen or HTRF; AlphaLISA on lysates of HeLa TRIM24-PB cells pretreated with SAHA or DMSO; anti-FLAG or anti-V5 acceptor beads, biotinylated anti-histone H3 antibody, streptavidin donor beads; histone extraction buffer diluted in water
# [8] = target: T1, FLAG-tagged BRD4 in HeLa cells (Homo sapiens, UniProt O60885); test: In situ cell extraction with IF, BRD4 displacement from chromatin; format: cell-based; conditions: HeLa FLAG-BRD4, 96-well, IF
# T1 construct: expressed in transfected cells; host or cells: HeLa
# Chain of biotinylated H3K23Ac peptide (N-terminal residues 1-33 of histone H3) (peptide, as listed by the source): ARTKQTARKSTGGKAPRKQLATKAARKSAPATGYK
compound,measurement,setting,value
I-BET 151,IF signal for histone H3,[1],unaffected
"His-tagged TRIM24 PHD-bromodomain, wild type (domain or fragment)",AlphaScreen signal to background (S/B),[2],> 250
same,AlphaScreen S/B at 5 nM TRIM24 and 15 nM peptide,[3],432
O=C(/C=C/N1C[C@H]2C[C@@H]1CN2c1ccccn1)c1ccccc1O [PFI-3],Displacement of endogenous full-length SMARCA2 protein from chromatin,[4],fails to displace
same,Displacement of isolated GFP-tagged SMARCA2 bromodomain from chromatin,[4]; engineered cells,can displace
Cc1sc2c(c1C)C(c1ccc(Cl)cc1)=N[C@@H](CC(=O)OC(C)(C)C)c1nnc(C)n1-2 [JQ1],IF signal for histone H3,[1],unaffected
same,Time to decrease in BRD4 bromodomain binding to chromatin,"[1]; JQ1 1 µM, HeLa expressing FLAG-tagged bromodomain of BRD4",≤ 5 min
"CC(/C=C/C(=O)NO)=C\[C@@H](C)C(=O)c1ccc(N(C)C)cc1 [TSA, Trichostatin A]",Cellular histone H3K23Ac mark,[5],hyperacetylated
endogenous histone H3 (from UniProt P68431 1-136) (natural protein),fold increase of the PLA signal with SAHA against no SAHA,[6],> 3 fold
same,"AlphaLISA S/B (FLAG-acceptor beads, histone extraction buffer diluted 1:10)",[7],50 fold
same,"AlphaLISA S/B (FLAG-acceptor beads, histone extraction buffer replaced by water)",[7],20
same,AlphaLISA S/B (V5-acceptor beads),[7],14 fold
same,"AlphaLISA S/B (final 384-well protocol, 26 plates)",[7],30
COc1cc(OC)c2c(=O)[nH]c(-c3cc(C)c(OCCO)c(C)c3)nc2c1 [RVX-208],Displacement of BRD4 from chromatin,[8],partial displacement
